Test results taken from BindingDB's records for patent US12544374 (Novartis, 2026).

Legend:
[1] = target: T1, Histone-lysine N-methyltransferase EZH2/Polycomb protein EED/Polycomb protein SUZ12 (Human, UniProt O75530+Q15022+Q15910); experiment: ELISA Assay
Protocol: ELISA protocol: Cell lysates were transferred to the wells of a 384-well plate and the final volume was adjusted to 50 μL per well with PBS. The plate was sealed, centrifuged at 2,000 rpm for 2 min and incubated at 4° C. for about 16 h. The plate was washed with TBST buffer (1×TBS (10×TBS: 24.2 g Tris (Sigma, T6066), 80 g NaCl (Sigma, S3014) to 1 L of water and adjust pH to 7.6 with HCl) with 0.1% Tween-20). Blocking buffer (TBST, 5% BSA; 50 μL per well) was added and the plate was incubated for 1 h at rt. The blocking buffer was removed and primary antibody was added (30 μL per well). […] The primary antibody was incubated in the plate at rt for 1 h. The wells were washed with TBST and incubated with secondary antibody for 1 h at rt.

[2] = target: T1, Histone-lysine N-methyltransferase EZH2/Polycomb protein EED/Polycomb protein SUZ12; experiment: EZH2 LC-MS Assay
Protocol: Representative compounds of the invention were serially and separately diluted 3-fold in DMSO to obtain twelve concentrations. […] Solutions (6 μL) of 80 nM wild type PRC2 (wtPRC2) complex and 60 μM SAM in reaction buffer (20 mM Tris, pH 8.0, 0.1% BSA, 0.01% Triton, 0.5 mM DTT) were added to the wells that were then incubated with the test compound for 20 min. A 6 μL solution of 3 μM of the substrate peptide H3K27me1 (histone H3[21-44]-K27me1-biotin) and 6 μM regulatory peptide H3K27me3 (histone H3[21-44]-K27me3) in reaction buffer was added to initiate each reaction. […] The data were fit to a dose response equation using the program Helios to get the IC50 values of the test compound.

T1 sequence (Q15910 whole entry): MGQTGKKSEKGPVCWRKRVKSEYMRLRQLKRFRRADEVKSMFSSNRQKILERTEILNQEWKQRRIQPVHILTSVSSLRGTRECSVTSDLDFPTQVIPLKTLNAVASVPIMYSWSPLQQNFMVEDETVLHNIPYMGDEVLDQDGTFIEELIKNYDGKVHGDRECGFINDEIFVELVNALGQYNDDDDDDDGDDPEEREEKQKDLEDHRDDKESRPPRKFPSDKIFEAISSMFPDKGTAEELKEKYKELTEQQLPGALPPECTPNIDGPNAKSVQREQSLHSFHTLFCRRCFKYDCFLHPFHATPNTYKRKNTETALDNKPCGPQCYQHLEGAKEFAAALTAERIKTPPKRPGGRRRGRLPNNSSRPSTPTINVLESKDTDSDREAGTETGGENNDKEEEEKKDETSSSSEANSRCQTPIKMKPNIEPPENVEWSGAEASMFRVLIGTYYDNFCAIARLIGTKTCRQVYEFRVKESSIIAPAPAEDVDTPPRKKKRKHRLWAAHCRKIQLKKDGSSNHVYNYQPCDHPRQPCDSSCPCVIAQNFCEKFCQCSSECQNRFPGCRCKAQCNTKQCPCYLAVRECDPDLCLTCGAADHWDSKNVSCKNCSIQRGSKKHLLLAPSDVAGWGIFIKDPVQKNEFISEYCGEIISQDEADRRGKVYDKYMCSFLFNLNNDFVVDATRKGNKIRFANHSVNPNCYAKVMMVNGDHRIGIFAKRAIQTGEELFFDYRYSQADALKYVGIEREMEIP
T1 sequence (O75530 whole entry): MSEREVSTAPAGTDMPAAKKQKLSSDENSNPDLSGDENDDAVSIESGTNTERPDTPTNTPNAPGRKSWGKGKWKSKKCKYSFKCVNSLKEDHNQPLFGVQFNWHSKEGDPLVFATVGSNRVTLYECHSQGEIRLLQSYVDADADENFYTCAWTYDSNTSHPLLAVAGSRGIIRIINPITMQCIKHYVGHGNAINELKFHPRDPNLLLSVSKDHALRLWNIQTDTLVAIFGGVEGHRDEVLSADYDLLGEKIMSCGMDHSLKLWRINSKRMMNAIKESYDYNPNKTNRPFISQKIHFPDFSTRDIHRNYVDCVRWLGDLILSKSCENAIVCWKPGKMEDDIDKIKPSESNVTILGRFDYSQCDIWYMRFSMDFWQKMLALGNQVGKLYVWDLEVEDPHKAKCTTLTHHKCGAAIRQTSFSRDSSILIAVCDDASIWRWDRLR
T1 sequence (Q15022 whole entry): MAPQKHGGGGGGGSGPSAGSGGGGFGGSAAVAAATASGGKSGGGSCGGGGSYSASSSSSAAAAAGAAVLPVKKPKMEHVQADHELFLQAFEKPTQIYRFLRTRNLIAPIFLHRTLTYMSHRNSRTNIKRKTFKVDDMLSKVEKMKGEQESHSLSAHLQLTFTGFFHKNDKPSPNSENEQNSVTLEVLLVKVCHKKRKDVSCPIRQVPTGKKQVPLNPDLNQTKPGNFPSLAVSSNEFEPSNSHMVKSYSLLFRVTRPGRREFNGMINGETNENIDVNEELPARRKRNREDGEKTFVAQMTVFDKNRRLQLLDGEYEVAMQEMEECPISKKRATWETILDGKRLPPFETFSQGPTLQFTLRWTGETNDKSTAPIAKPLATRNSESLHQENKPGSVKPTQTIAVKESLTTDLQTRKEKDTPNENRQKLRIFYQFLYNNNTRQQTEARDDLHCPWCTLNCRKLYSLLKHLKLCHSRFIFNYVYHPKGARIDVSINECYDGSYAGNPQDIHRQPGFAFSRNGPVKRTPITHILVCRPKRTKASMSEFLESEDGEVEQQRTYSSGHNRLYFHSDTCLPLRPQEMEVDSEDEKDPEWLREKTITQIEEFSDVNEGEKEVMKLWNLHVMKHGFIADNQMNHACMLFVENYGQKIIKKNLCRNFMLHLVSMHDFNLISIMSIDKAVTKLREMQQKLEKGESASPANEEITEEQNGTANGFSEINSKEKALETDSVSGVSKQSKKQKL

SMILES	IC50 [1] [nM]	IC50 [2] [nM]
COCCOC(=O)Nc1cnc(NCC2CCC(Nc3ccc4ccnc(Cl)c4n3)CC2)nc1 (stereo not drawn) [US12544374, Compound C16]	27	15
Clc1nccc2ccc(NC3CCC(CNc4ncc(COC5COC5)cn4)CC3)nc12 (stereo not drawn) [US12544374, Compound C35]		27
